In ChEMBL document CHEMBL1130698, “Design and synthesis of new potent, silent 5-HT1A antagonists by covalent coupling of aminopropanol derivatives with selective serotonin reuptake inhibitors” (Bioorg Med Chem Lett, 1998):

Key:
[1] = molecular target: T1, 5-hydroxytryptamine receptor 1A (Homo sapiens) (UniProt P08908); assay: Antagonistic potency as binding affinity of 5-HT stimulated [35S]GTP gamma S to human 5-HT1A receptor; format: functional
T1 sequence (whole entry): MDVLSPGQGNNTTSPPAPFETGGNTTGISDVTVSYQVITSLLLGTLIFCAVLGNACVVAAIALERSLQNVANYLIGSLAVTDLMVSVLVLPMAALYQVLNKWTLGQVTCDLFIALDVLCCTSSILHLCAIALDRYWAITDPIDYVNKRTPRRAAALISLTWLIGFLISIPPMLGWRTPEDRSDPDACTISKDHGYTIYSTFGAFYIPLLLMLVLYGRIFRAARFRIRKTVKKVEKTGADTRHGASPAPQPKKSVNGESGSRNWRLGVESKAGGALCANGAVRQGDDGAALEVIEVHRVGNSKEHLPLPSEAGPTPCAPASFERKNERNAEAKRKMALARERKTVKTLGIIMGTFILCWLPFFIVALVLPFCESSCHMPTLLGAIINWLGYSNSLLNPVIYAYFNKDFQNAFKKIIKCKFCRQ

[2] = molecular target: T2, 5-hydroxytryptamine receptor 1A (Homo sapiens, UniProt P08908); assay: Displacement of [3H]8-OH-DPAT from human 5-HT1A receptor
T2 sequence (P08908 whole entry): T1 sequence (whole entry)

Kb [1] | Ki [2] | Compound
0.7 nM | 5.9 nM | O[C@H](COc1cccc2[nH]ccc12)CN1CC[C@@H](c2ccc(F)cc2)[C@H](COc2ccc3c(c2)OCO3)C1
1730 nM | 391 nM | OC(CNCCCCCCNCCC(Oc1ccc(C(F)(F)F)cc1)c1ccccc1)COc1cccc2ccccc12 (centres undefined)
188 nM | 156 nM | OC(CNCCCCCCN1CC[C@H](c2ccc(F)cc2)[C@@H](COc2ccc3c(c2)OCO3)C1)COc1cccc2ccccc12 (some centres undefined)
7.5 nM | 15.7 nM | O[C@@H](COc1cccc2[nH]ccc12)CN1CC[C@@H](c2ccc(F)cc2)[C@H](COc2ccc3c(c2)OCO3)C1
4.3 nM | 6.7 nM | OC(CNCCCCCCN1CC[C@H](c2ccc(F)cc2)[C@@H](COc2ccc3c(c2)OCO3)C1)COc1cccc2[nH]ccc12 (some centres undefined)
37.9 nM | 32.9 nM | O[C@@H](CNCC[C@H](Oc1ccc(C(F)(F)F)cc1)c1ccccc1)COc1cccc2ccccc12

The remaining lines, values behind:

Compound | Kb [1] | Ki [2]
O[C@H](CNCC[C@H](Oc1ccc(C(F)(F)F)cc1)c1ccccc1)COc1cccc2[nH]ccc12 | 1.4 nM | 60.3 nM
OC(CNCCC(Oc1ccc(C(F)(F)F)cc1)c1ccccc1)COc1ccccc1C1CCCC1 (centres undefined) | 15.2 nM | 36.4 nM
O[C@H](CNCC[C@H](Oc1ccc(C(F)(F)F)cc1)c1ccccc1)COc1cccc2ccccc12 | 388 nM | 142 nM
CCN(CC)C(=O)[C@@]1(c2ccccc2)C[C@H]1CNCC(O)COc1cccc2[nH]ccc12 (some centres undefined) | 14.8 nM | 45.4 nM
OC(CNCCC(Oc1ccc(C(F)(F)F)cc1)c1ccccc1)COc1cccc2[nH]ccc12 (centres undefined) | 2.2 nM | 18.7 nM
O[C@@H](CNCC[C@H](Oc1ccc(C(F)(F)F)cc1)c1ccccc1)COc1cccc2[nH]ccc12 | 0.2 nM | 7.8 nM
